Patent US20260250318A1, “COMPOSITIONS AND METHODS FOR CROSSING THE BLOOD BRAIN BARRIER” (VOYAGER THERAPEUTICS, INC., priority 2022, published 2026)

What was measured:
brain = assay: Matured TTM-001 and TTM-002 variants, NGS enrichment in mouse brain; type: in vivo, mice; details: relative to AAV9 control
[1] = test system: brains, heart, liver, muscle, and DRG of the NHPs; assay: Maturation of TTM-001 and TTM-002 capsids, NGS enrichment in NHP tissues; type: in vivo; details: relative to AAV9 control
Method in brief: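 Variants carry mutations within and flanking the loop IV peptide insert: positions 450–466 were triplet-randomized, while positions 449–466 received low-frequency point mutations. The combined pool went into two NHPs, and each peptide was scored by NGS enrichment ratio against AAV9.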

[2] = NGS fold-enrichment, brain of mice
[3] = NGS fold-enrichment, mouse brain
[4] = NGS fold-enrichment of RNA, NHP brain
[5] = NGS fold-enrichment, DRG of NHPs
[6] = NGS fold-enrichment, NHP liver DNA
[7] = NGS fold-enrichment, NHP liver RNA
[8] = NGS fold-enrichment, NHP muscle
[9] = NGS fold-enrichment, RNA, brain of NHPs
[10] = NGS fold-enrichment, heart of NHPs
[11] = NGS fold-enrichment, liver DNA of NHPs
[12] = NGS fold-enrichment, liver RNA of NHPs
[13] = NGS fold-enrichment, muscle of NHPs
[14] = NGS fold-enrichment of matured AAV capsid variants, NHP brain, RNA

Row | Sequence | Fold Enrichment relative to AAV9, Brain (Mouse) (brain; [3]) | Fold Enrichment relative to AAV9, Brain (NHP) [1, 4] | Fold Enrichment relative to AAV9, DRG (NHP) ([1]; NGS fold-enrichment, NHP DRG) | Fold Enrichment relative to AAV9, Heart (NHP) ([1]; NGS fold-enrichment, NHP heart) | Fold Enrichment relative to AAV9, Liver DNA (NHP) [1, 6] | Fold Enrichment relative to AAV9, Liver RNA (NHP) [1, 7] | Fold Enrichment relative to AAV9, Muscle (NHP) [1, 8] | Fold Enrichment relative to AAV9, Brain (Mouse) (brain; mouse brain) | Fold Enrichment relative to AAV9, Brain (NHP) [1, 14] | Fold Enrichment relative to AAV9, DRG (NHP) ([1]; NHP DRG) | Fold Enrichment relative to AAV9, Heart (NHP) ([1]; NHP heart) | Fold Enrichment relative to AAV9, Liver DNA (NHP) ([1]; NHP liver, DNA) | Fold Enrichment relative to AAV9, Liver RNA (NHP) ([1]; NHP liver, RNA) | Fold Enrichment relative to AAV9, Muscle (NHP) ([1]; NHP muscle) | other results
1 | KTINGNGSPHSKAQNPLT | 53.583 fold | 75.269 fold | 0.000 fold | 0.000 fold | 0.000 fold | 0.366 fold | 0.000 fold | – | – | – | – | – | – | – | Fold Enrichment relative to AAV9, Brain (Mouse) (brain; [2]): 53.583 fold; Fold Enrichment relative to AAV9, DRG (NHP) [1, 5]: 0.000 fold; Fold Enrichment relative to AAV9, Brain (NHP) [1, 9]: 75.269 fold; Fold Enrichment relative to AAV9, Heart (NHP) [1, 10]: 0.000 fold; Fold Enrichment relative to AAV9, Liver DNA (NHP) [1, 11]: 0.000 fold; Fold Enrichment relative to AAV9, Liver RNA (NHP) [1, 12]: 0.366 fold; Fold Enrichment relative to AAV9, Muscle (NHP) [1, 13]: 0.000 fold
2 | KTINGNGSPHSKSQNQHT | – | – | – | – | – | – | – | 56.614 fold | 51.379 fold | 0.000 fold | 0.054 fold | 0.082 fold | 0.000 fold | 0.000 fold | –
3 | KTINGPDSPHKIGQNQQS | 10.055 fold | 85.726 fold | 0.000 fold | 0.055 fold | 0.063 fold | 0.000 fold | 0.171 fold | – | – | – | – | – | – | – | –
4 | KTINGPGSPHSKAHNQQT | 52.508 fold | 115.742 fold | 0.146 fold | 0.000 fold | 0.513 fold | 0.000 fold | 0.235 fold | – | – | – | – | – | – | – | Fold Enrichment relative to AAV9, Brain (Mouse) (brain; [2]): 52.508 fold; Fold Enrichment relative to AAV9, DRG (NHP) [1, 5]: 0.146 fold; Fold Enrichment relative to AAV9, Brain (NHP) [1, 9]: 115.742 fold; Fold Enrichment relative to AAV9, Heart (NHP) [1, 10]: 0.000 fold; Fold Enrichment relative to AAV9, Liver DNA (NHP) [1, 11]: 0.513 fold; Fold Enrichment relative to AAV9, Liver RNA (NHP) [1, 12]: 0.000 fold; Fold Enrichment relative to AAV9, Muscle (NHP) [1, 13]: 0.235 fold
5 | KTINGQDSPHKSGQHQQA | 5.582 fold | 85.657 fold | 1.127 fold | 0.579 fold | 0.557 fold | 0.193 fold | 0.000 fold | – | – | – | – | – | – | – | –
6 | KTINGQDSPHKSGQNQDT | 9.626 fold | 82.075 fold | 0.000 fold | 0.067 fold | 0.144 fold | 0.225 fold | 0.000 fold | – | – | – | – | – | – | – | –
7 | KTINGRGSPHKRGQNQQT | 13.988 fold | 120.889 fold | 0.100 fold | 0.814 fold | 0.614 fold | 0.458 fold | 0.434 fold | – | – | – | – | – | – | – | –
8 | KTINGSASPHSKAHSQQT | – | – | – | – | – | – | – | 66.252 fold | 55.293 fold | 0.000 fold | 0.000 fold | 0.166 fold | 0.000 fold | 0.000 fold | –
9 | KTINGSGSPHAKAQNHQT | – | – | – | – | – | – | – | 80.603 fold | 50.667 fold | 0.211 fold | 0.140 fold | 0.090 fold | 0.101 fold | 0.051 fold | –
10 | KTINGSGSPHGWVQNQQT | 290.720 fold | 97.122 fold | 0.000 fold | 0.000 fold | 1.975 fold | 1.240 fold | 0.000 fold | – | – | – | – | – | – | – | Fold Enrichment relative to AAV9, Brain (Mouse) (brain; [2]): 290.720 fold; Fold Enrichment relative to AAV9, DRG (NHP) [1, 5]: 0.000 fold; Fold Enrichment relative to AAV9, Brain (NHP) [1, 9]: 97.122 fold; Fold Enrichment relative to AAV9, Heart (NHP) [1, 10]: 0.000 fold; Fold Enrichment relative to AAV9, Liver DNA (NHP) [1, 11]: 1.975 fold; Fold Enrichment relative to AAV9, Liver RNA (NHP) [1, 12]: 1.240 fold; Fold Enrichment relative to AAV9, Muscle (NHP) [1, 13]: 0.000 fold
11 | KTINGSGSPHSKAGDSQT | – | – | – | – | – | – | – | 74.355 fold | 50.457 fold | 0.614 fold | 0.236 fold | 0.071 fold | 1.062 fold | 0.008 fold | –
